ChEMBL document CHEMBL1201862, “PubChem BioAssay data set” (2004)
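Briefly, cells in 96-well plates were exposed to five compound concentrations for 48 h, and endpoints were estimated by linear interpolation. GI50 = concentration required for 50% inhibition of growth.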 Activity calls are given as the source filed them. Cut-off read from the data, not from the text of the source: active = GI50 up to about 1.1 µM and inactive = higher.

What was measured:
Test in all cases: NCI anticancer screen, dose series, 48 h
OVCAR-3 = test system: OVCAR-3
HCT-15 = test system: HCT-15
HOP-62 = test system: HOP-62
MDA-MB-231 = test system: MDA-MB-231
M14 = test system: M14
CAKI-1 = test system: CAKI-1
786-0 = test system: 786-0
NCI/ADR-RES = test system: NCI/ADR-RES
HCC 2998 = test system: HCC 2998
A549 = test system: A549
NCI-H23 = test system: NCI-H23
OVCAR-8 = test system: OVCAR-8
Malme-3M = test system: Malme-3M
HCT-116 = test system: HCT-116
SK-MEL-5 = test system: SK-MEL-5
HOP-92 = test system: HOP-92
LOX IMVI = test system: LOX IMVI
TK-10 = test system: TK-10
BT-549 = test system: BT-549
ACHN = test system: ACHN
SR = test system: SR
RPMI-8226 = test system: RPMI-8226
MCF7 = test system: MCF7
NCI-H460 = test system: NCI-H460
MDA-N = test system: MDA-N
SF-295 = test system: SF-295
U-251 = test system: U-251
HT-29 = test system: HT-29
OVCAR-4 = test system: OVCAR-4
SK-MEL-2 = test system: SK-MEL-2
HL-60 = test system: HL-60
UO-31 = test system: UO-31
SK-MEL-28 = test system: SK-MEL-28
SN12C = test system: SN12C
K562 = test system: K562
MDA-MB-435 = test system: MDA-MB-435
CCRF-CEM = test system: CCRF-CEM
UACC-257 = test system: UACC-257
DU-145 = test system: DU-145
EKVX = test system: EKVX
KM12 = test system: KM12
MOLT-4 = test system: MOLT-4
COLO 205 = test system: COLO 205
SNB-19 = test system: SNB-19
OVCAR-5 = test system: OVCAR-5
SW-620 = test system: SW-620
NCI-H226 = test system: NCI-H226
NCI-H522 = test system: NCI-H522
RXF 393 = test system: RXF 393
PC-3 = test system: PC-3
SF-268 = test system: SF-268
IGROV-1 = test system: IGROV-1
T47D = test system: T47D
SF-539 = test system: SF-539
UACC-62 = test system: UACC-62
SK-OV-3 = test system: SK-OV-3
SNB-75 = test system: SNB-75

Compound: O=C(O)Cn1nnc2c(=O)[nH][nH]c(=O)c21
- GI50 (OVCAR-3): > 100 µM (inactive)
- GI50 (HCT-15): > 100 µM
- GI50 (HOP-62): > 100 µM (inactive)
- GI50 (MDA-MB-231): > 100 µM (inactive)
- GI50 (M14): > 100 µM (inactive)
- GI50 (CAKI-1): > 100 µM (inactive)
- GI50 (786-0): > 100 µM (inactive)
- GI50 (NCI/ADR-RES): > 100 µM (inactive)
- GI50 (HCC 2998): > 100 µM (inactive)
- GI50 (A549): > 100 µM (inactive)
- GI50 (NCI-H23): > 100 µM (inactive)
- GI50 (OVCAR-8): > 100 µM (inactive)
- GI50 (Malme-3M): > 100 µM (inactive)
- GI50 (HCT-116): > 100 µM (inactive)
- GI50 (SK-MEL-5): > 100 µM (inactive)
- GI50 (HOP-92): > 100 µM (inactive)
- GI50 (LOX IMVI): > 100 µM (inactive)
- GI50 (TK-10): > 100 µM (inactive)
- GI50 (BT-549): > 100 µM (inactive)
- GI50 (ACHN): > 100 µM (inactive)
- GI50 (SR): > 100 µM (inactive)
- GI50 (RPMI-8226): > 100 µM (inactive)
- GI50 (MCF7): > 100 µM (inactive)
- GI50 (NCI-H460): > 100 µM (inactive)
- GI50 (MDA-N): > 100 µM (inactive)
- GI50 (SF-295): > 100 µM (inactive)
- GI50 (U-251): > 100 µM (inactive)
- GI50 (HT-29): > 100 µM (inactive)
- GI50 (OVCAR-4): > 10 µM (inactive)
- GI50 (SK-MEL-2): > 100 µM (inactive)
- GI50 (HL-60): > 100 µM (inactive)
- GI50 (UO-31): > 100 µM (inactive)
- GI50 (SK-MEL-28): > 100 µM (inactive)
- GI50 (SN12C): > 100 µM (inactive)
- GI50 (K562): > 10 µM (inactive)
- GI50 (MDA-MB-435): > 100 µM (inactive)
- GI50 (CCRF-CEM): > 100 µM (inactive)
- GI50 (UACC-257): > 100 µM (inactive)
- GI50 (DU-145): > 100 µM (inactive)
- GI50 (EKVX): > 100 µM (inactive)
- GI50 (KM12): > 100 µM (inactive)
- GI50 (MOLT-4): > 10 µM (inactive)
- GI50 (COLO 205): > 100 µM (inactive)
- GI50 (SNB-19): > 100 µM (inactive)
- GI50 (OVCAR-5): > 100 µM (inactive)

Compound: Cc1ccc(/C=C/C(=N/NC(=O)N/N=C(/C=C/c2ccc(C)cc2)C(C)C)C(C)C)cc1
- GI50 (OVCAR-3): 3.93 µM (inactive)
- GI50 (HCT-15): > 10 µM
- GI50 (HOP-62): > 10 µM (inactive)
- GI50 (MDA-MB-231): > 10 µM (inactive)
- GI50 (M14): > 10 µM (inactive)
- GI50 (SW-620): > 10 µM (inactive)
- GI50 (NCI-H226): > 10 µM (inactive)
- GI50 (CAKI-1): > 10 µM (inactive)
- GI50 (786-0): > 10 µM (inactive)
- GI50 (NCI/ADR-RES): > 10 µM (inactive)
- GI50 (HCC 2998): > 10 µM (inactive)
- GI50 (A549): > 10 µM (inactive)
- GI50 (NCI-H23): > 10 µM (inactive)
- GI50 (OVCAR-8): > 10 µM (inactive)
- GI50 (Malme-3M): > 10 µM (inactive)
- GI50 (HCT-116): 5.24 µM (inactive)
- GI50 (NCI-H522): 9.12 µM (inactive)
- GI50 (HOP-92): > 10 µM (inactive)
- GI50 (RXF 393): > 10 µM (inactive)
- GI50 (PC-3): > 10 µM (inactive)
- GI50 (TK-10): > 10 µM (inactive)
- GI50 (BT-549): > 10 µM (inactive)
- GI50 (ACHN): > 10 µM (inactive)
- GI50 (SR): > 10 µM (inactive)
- GI50 (RPMI-8226): 3.11 µM (inactive)
- GI50 (MCF7): > 10 µM (inactive)
- GI50 (NCI-H460): > 10 µM (inactive)
- GI50 (MDA-N): > 10 µM (inactive)
- GI50 (SF-295): > 10 µM (inactive)
- GI50 (U-251): > 10 µM (inactive)
- GI50 (HT-29): > 10 µM (inactive)
- GI50 (OVCAR-4): 1.5 µM (inactive)
- GI50 (SK-MEL-2): > 10 µM (inactive)
- GI50 (HL-60): 4.42 µM (inactive)
- GI50 (UO-31): > 10 µM (inactive)
- GI50 (SN12C): 9.77 µM (inactive)
- GI50 (K562): > 10 µM (inactive)
- GI50 (SF-268): > 10 µM (inactive)
- GI50 (MDA-MB-435): > 10 µM (inactive)
- GI50 (CCRF-CEM): > 10 µM (inactive)
- GI50 (UACC-257): > 10 µM (inactive)
- GI50 (DU-145): > 10 µM (inactive)
- GI50 (EKVX): > 10 µM (inactive)
- GI50 (KM12): > 10 µM (inactive)
- GI50 (MOLT-4): > 10 µM (inactive)
- GI50 (COLO 205): > 10 µM (inactive)
- GI50 (SNB-19): > 10 µM (inactive)
- GI50 (OVCAR-5): > 10 µM (inactive)

Compound: O=C(NNc1cn[nH]c(=O)c1Cl)/C(=C/c1ccc2c(c1)OCO2)NC(=O)c1ccccc1
- GI50 (OVCAR-3): 71.3 µM (inactive)
- GI50 (HCT-15): 31.7 µM
- GI50 (IGROV-1): 23.6 µM (inactive)
- GI50 (HOP-62): 57.1 µM (inactive)
- GI50 (T47D): 73.5 µM (inactive)
- GI50 (MDA-MB-231): > 100 µM (inactive)
- GI50 (M14): 61.8 µM (inactive)
- GI50 (SW-620): 41.2 µM (inactive)
- GI50 (NCI-H226): 21.9 µM (inactive)
- GI50 (CAKI-1): 22.9 µM (inactive)
- GI50 (786-0): 38.5 µM (inactive)
- GI50 (NCI/ADR-RES): 35.6 µM (inactive)
- GI50 (HCC 2998): 41.3 µM (inactive)
- GI50 (A549): > 100 µM (inactive)
- GI50 (NCI-H23): 42.5 µM (inactive)
- GI50 (OVCAR-8): 36.7 µM (inactive)
- GI50 (SF-539): 40.7 µM (inactive)
- GI50 (HCT-116): 34.8 µM (inactive)
- GI50 (SK-MEL-5): 40.8 µM (inactive)
- GI50 (HOP-92): > 100 µM (inactive)
- GI50 (LOX IMVI): 30.9 µM (inactive)
- GI50 (PC-3): 61.2 µM (inactive)
- GI50 (TK-10): 34 µM (inactive)
- GI50 (BT-549): 18.5 µM (inactive)
- GI50 (ACHN): 59.8 µM (inactive)
- GI50 (MCF7): 41.5 µM (inactive)
- GI50 (NCI-H460): 35.6 µM (inactive)
- GI50 (MDA-N): 44.7 µM (inactive)
- GI50 (SF-295): 71.3 µM (inactive)
- GI50 (U-251): 53.5 µM (inactive)
- GI50 (HT-29): 41.5 µM (inactive)
- GI50 (OVCAR-4): 32.8 µM (inactive)
- GI50 (UACC-62): 35.2 µM (inactive)
- GI50 (SK-OV-3): > 100 µM (inactive)
- GI50 (SK-MEL-2): 51.9 µM (inactive)
- GI50 (UO-31): 48.2 µM (inactive)
- GI50 (SNB-75): 24.9 µM (inactive)
- GI50 (SK-MEL-28): 74.3 µM (inactive)
- GI50 (SN12C): 50 µM (inactive)
- GI50 (MDA-MB-435): 79.4 µM (inactive)
- GI50 (UACC-257): > 100 µM (inactive)
- GI50 (DU-145): 92 µM (inactive)
- GI50 (EKVX): 19.1 µM (inactive)
- GI50 (KM12): 34.7 µM (inactive)
- GI50 (MOLT-4): 33.4 µM (inactive)
- GI50 (COLO 205): 46.9 µM (inactive)
- GI50 (SNB-19): 76.2 µM (inactive)
- GI50 (OVCAR-5): > 100 µM (inactive)
